Measured values published in ChEMBL document CHEMBL1139308, “Identification and synthesis of 2,7-diamino-thiazolo[5,4-d]pyrimidine derivatives as TRPV1 antagonists” (Bioorg Med Chem Lett, 2009).
In brackets after ≈: the same amount, converted by molar mass. Activity calls are given as the source filed them. The rule behind the calls is not given here.

Legend:
[1] = molecular target: T1, Transient receptor potential cation channel subfamily V member 1 (Homo sapiens, UniProt Q8NER1); experiment: Antagonist activity at human TRPV1 expressed in HEK293 cells assessed as inhibition of capsaicin-induced calcium flux; type: functional, cell-based
T1 sequence (Q8NER1 whole entry): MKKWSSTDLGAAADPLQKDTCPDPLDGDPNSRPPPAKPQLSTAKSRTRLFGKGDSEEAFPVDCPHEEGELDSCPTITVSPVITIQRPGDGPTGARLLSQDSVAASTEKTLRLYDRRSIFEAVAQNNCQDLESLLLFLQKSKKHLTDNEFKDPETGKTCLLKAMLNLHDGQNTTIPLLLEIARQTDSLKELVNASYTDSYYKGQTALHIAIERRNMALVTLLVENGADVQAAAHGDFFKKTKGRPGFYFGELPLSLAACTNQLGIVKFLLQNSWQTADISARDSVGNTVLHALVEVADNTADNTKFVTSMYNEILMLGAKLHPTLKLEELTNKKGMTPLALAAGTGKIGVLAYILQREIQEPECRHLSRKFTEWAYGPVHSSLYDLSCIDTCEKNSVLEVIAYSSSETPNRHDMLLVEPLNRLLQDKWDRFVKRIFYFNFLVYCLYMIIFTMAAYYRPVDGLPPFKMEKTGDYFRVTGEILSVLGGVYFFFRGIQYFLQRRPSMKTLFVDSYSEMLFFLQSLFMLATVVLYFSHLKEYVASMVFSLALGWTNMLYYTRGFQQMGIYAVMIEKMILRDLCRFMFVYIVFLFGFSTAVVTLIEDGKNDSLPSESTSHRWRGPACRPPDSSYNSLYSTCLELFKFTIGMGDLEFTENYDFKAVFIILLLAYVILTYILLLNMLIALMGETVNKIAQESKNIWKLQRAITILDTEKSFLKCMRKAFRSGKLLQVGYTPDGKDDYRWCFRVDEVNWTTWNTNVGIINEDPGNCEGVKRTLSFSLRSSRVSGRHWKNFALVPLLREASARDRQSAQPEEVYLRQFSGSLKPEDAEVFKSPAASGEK

[2] = molecular target: T2, Transient receptor potential cation channel subfamily V member 1 (Rattus norvegicus, UniProt O35433); experiment: Antagonist activity at rat TRPV1 expressed in HEK293 cells assessed as inhibition of capsaicin-induced calcium flux; type: functional, cell-based
T2 sequence (O35433 whole entry): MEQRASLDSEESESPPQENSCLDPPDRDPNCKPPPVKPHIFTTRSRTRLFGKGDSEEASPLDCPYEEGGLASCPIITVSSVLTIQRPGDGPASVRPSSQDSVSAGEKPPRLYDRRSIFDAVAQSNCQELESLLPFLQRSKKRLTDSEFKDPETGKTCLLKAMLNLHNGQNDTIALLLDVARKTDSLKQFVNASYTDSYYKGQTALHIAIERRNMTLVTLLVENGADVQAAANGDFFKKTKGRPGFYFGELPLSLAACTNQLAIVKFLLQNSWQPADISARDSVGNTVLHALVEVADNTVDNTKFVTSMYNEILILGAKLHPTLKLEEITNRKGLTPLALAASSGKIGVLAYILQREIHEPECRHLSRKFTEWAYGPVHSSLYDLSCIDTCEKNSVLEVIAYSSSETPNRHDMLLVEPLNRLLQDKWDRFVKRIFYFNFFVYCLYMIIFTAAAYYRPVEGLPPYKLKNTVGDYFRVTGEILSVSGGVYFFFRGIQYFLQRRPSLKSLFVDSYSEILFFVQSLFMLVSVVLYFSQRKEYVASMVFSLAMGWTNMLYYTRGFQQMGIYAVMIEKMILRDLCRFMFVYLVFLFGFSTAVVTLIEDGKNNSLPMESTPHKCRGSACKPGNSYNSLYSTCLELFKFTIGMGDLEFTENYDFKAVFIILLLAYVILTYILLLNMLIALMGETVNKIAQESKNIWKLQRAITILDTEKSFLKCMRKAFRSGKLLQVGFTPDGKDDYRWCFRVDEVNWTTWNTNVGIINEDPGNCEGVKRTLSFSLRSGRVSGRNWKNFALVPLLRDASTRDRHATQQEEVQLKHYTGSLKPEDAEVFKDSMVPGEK

[3] = molecular target: Transient receptor potential cation channel subfamily V member 1 (Rattus norvegicus) (UniProt O35433); experiment: Antagonist activity at rat TRPV1 assessed as fold increase in EC50 of capsaicin-induced isometric contraction in rat bladder at 100 nM; type: functional
Sequence of Transient receptor potential cation channel subfamily V member 1 (Rattus norvegicus) (O35433 whole entry): as above

[4] = Half life in fasted Sprague-Dawley rat at 1 mg/kg, iv and 5 mg/kg, po; type: ADME, organism-based; conditions: in vivo
Rattus norvegicus [5] = experiment: AUC (0 to infinity) in fasted Sprague-Dawley rat at 5 mg/kg, po; type: ADME, organism-based, Plasma; design: time infinity, dose 5 mg/kg, route oral; conditions: in vivo
[6] = Plasma concentration in carrageenan-induced thermal hyperalgesia rat model at 0.3 mg/kg, po after 5 hrs post-carrageenan injection; type: ADME, organism-based; design: dose 0.3 mg/kg, route oral
Rattus norvegicus [7] = experiment: Analgesic activity in po dosed rat model assessed as inhibition of carrageenan-induced thermal hyperalgesia administered 1 hr prior carrageenan challenge; type: functional
Rattus norvegicus [8] = experiment: Analgesic activity in rat model assessed as maximum degree of inhibition of carrageenan-induced thermal hyperalgesia at 3 mg/kg, po administered 1 hr prior carrageenan challenge measured after 4 hrs; type: functional; design: scale not given: the % may be the effect or the level left
[9] = Cmax in fasted Sprague-Dawley rat at 5 mg/kg, po; type: ADME, organism-based; design: dose 5 mg/kg, route oral; conditions: in vivo
[10] = Aqueous solubility in fasted-state simulated intestinal fluid at pH 6.8 after 3 days by HPLC; type: physicochemical
[11] = Volume of distribution at steady state in fasted Sprague-Dawley rat at 1 mg/kg, iv and 5 mg/kg, po; type: ADME, organism-based; conditions: in vivo, read-out: Vdss
Rattus norvegicus [12] = experiment: Bioavailability in fasted Sprague-Dawley rat at 1 mg/kg, iv and 5 mg/kg, po; type: ADME, organism-based; conditions: in vivo
[13] = molecular target: T2, Transient receptor potential cation channel subfamily V member 1; experiment: Displacement of [3H]RTX from rat TRPV1 expressed in HEK293 cells; type: cell-based
Rattus norvegicus [14] = species on record: Rattus norvegicus; experiment: Suppression of KCl-induced rat bladder contraction at 100 nM; type: functional, tissue-based; conditions: Urinary bladder
[15] = Plasma concentration in carrageenan-induced thermal hyperalgesia rat model at 3 mg/kg, po after 5 hrs post-carrageenan injection; type: ADME, organism-based; design: dose 3 mg/kg, route oral
[16] = Plasma concentration in carrageenan-induced thermal hyperalgesia rat model at 1 mg/kg, po after 5 hrs post-carrageenan injection; type: ADME, organism-based; design: dose 1 mg/kg, route oral
[17] = Tmax in fasted Sprague-Dawley rat at 5 mg/kg, po; type: ADME, organism-based; design: dose 5 mg/kg, route oral; conditions: in vivo
[18] = Aqueous solubility in simulated gastric fluid at pH 1.2 after 3 days by HPLC; type: physicochemical
Rattus norvegicus [19] = experiment: Analgesic activity in rat model assessed as inhibition of carrageenan-induced thermal hyperalgesia at 0.3 mg/kg, po administered 1 hr prior carrageenan challenge relative to control; type: functional, organism-based; design: dose 0.3 mg/kg
Rattus norvegicus [20] = experiment: Clearance in fasted Sprague-Dawley rat at 1 mg/kg, iv and 5 mg/kg, po; type: ADME, organism-based; conditions: in vivo
[21] = molecular target: T1, Transient receptor potential cation channel subfamily V member 1; experiment: Antagonist activity at human TRPV1 expressed in HEK293 cells assessed as inhibition of low pH-induced calcium influx; type: functional, cell-based
Rattus norvegicus [22] = experiment: Analgesic activity against carrageenan-induced thermal hyperalgesia in po dosed rat model assessed as paw withdrawal latency; type: functional, organism-based
Rattus norvegicus [23] = experiment: Analgesic activity in rat model assessed as inhibition of carrageenan-induced thermal hyperalgesia at 3 mg/kg, po administered 1 hr prior carrageenan challenge relative to control; type: functional, organism-based; design: dose 3 mg/kg
[24] = Plasma concentration in carrageenan-induced thermal hyperalgesia rat model at 30 mg/kg, po after 5 hrs post-carrageenan injection; type: ADME, organism-based; design: dose 30 mg/kg, route oral
Rattus norvegicus [25] = experiment: Analgesic activity in rat model assessed as inhibition of carrageenan-induced thermal hyperalgesia at 30 mg/kg, po administered 1 hr prior carrageenan challenge relative to control; type: functional, organism-based; design: dose 30 mg/kg
Rattus norvegicus [26] = experiment: Analgesic activity in rat model assessed as inhibition of carrageenan-induced thermal hyperalgesia at 1 mg/kg, po administered 1 hr prior carrageenan challenge relative to control; type: functional, organism-based; design: dose 1 mg/kg
[27] = molecular target: T2, Transient receptor potential cation channel subfamily V member 1; experiment: Antagonist activity at rat TRPV1 expressed in HEK293 cells assessed as inhibition of low pH-induced calcium influx; type: functional, cell-based
[28] = Clearance in fasted Sprague-Dawley rat at 0.5 mg/kg, iv and 2 mg/kg, po; type: ADME, organism-based; conditions: in vivo
[29] = Cmax in fasted Sprague-Dawley rat at 2 mg/kg, po; type: ADME, organism-based; design: dose 2 mg/kg, route oral; conditions: in vivo
[30] = Half life in fasted Sprague-Dawley rat at 0.5 mg/kg, iv and 2 mg/kg, po; type: ADME, organism-based; conditions: in vivo
[31] = Bioavailability in fasted Sprague-Dawley rat at 0.5 mg/kg, iv and 2 mg/kg, po; type: ADME, organism-based; conditions: in vivo
[32] = Volume of distribution at steady state in fasted Sprague-Dawley rat at 0.5 mg/kg, iv and 2 mg/kg, po; type: ADME, organism-based; conditions: in vivo, read-out: Vdss
Rattus norvegicus [33] = experiment: AUC (infinity) in fasted Sprague-Dawley rat at 2 mg/kg, po; type: ADME, organism-based, Plasma; design: time infinity, dose 2 mg/kg, route oral; conditions: in vivo
[34] = Tmax in fasted Sprague-Dawley rat at 2 mg/kg, po; type: ADME, organism-based; design: dose 2 mg/kg, route oral; conditions: in vivo

## FC(F)(F)c1ccc(Nc2ncnc3sc(Nc4c(Cl)cccc4Cl)nc23)cc1Cl
[1]
  IC50: 21 nM
[2]
  IC50: 9 nM

## CN(c1nc2c(Nc3ccc(C(F)(F)F)cc3)ncnc2s1)c1c(Cl)cccc1Cl
[1]
  IC50: 502 nM
[2]
  IC50: 540 nM

## NC(=O)c1cc(Cl)c(Nc2nc3c(Nc4ccc(C(F)(F)F)cc4)ncnc3s2)c(Cl)c1
[1]
  IC50: 69 nM
[2]
  IC50: 57 nM

## CSc1ccccc1Nc1nc2c(Nc3ccc(C(F)(F)F)cc3)ncnc2s1
[1]
  IC50: 43 nM
[2]
  IC50: 26 nM

## CSc1ccc(Nc2ncnc3sc(Nc4c(Cl)cccc4Cl)nc23)cc1
[1]
  IC50: 96 nM
[2]
  IC50: 12 nM

## CN(c1ccc(C(F)(F)F)cc1)c1ncnc2sc(Nc3c(Cl)cccc3Cl)nc12
[1]
  IC50: > 5000 nM
[2]
  IC50: > 1000 nM

## CC(C)(C)c1ccc(Nc2ncnc3sc(Nc4c(Cl)cccc4Cl)nc23)cc1
[1]
  IC50: 11 nM

## O=C(O)c1ccc(Nc2ncnc3sc(Nc4c(Cl)cccc4Cl)nc23)cc1
[1]
  IC50: > 5000 nM
[2]
  IC50: > 5000 nM

## FC(F)(F)c1ccc(Nc2nc(N3CCC3)nc3sc(Nc4c(Cl)cccc4Cl)nc23)cc1
[1]
  IC50: 59 nM
[2]
  IC50: 25 nM

## FC(F)(F)c1ccc(Nc2ncnc3sc(Nc4c(Cl)cccc4Cl)nc23)cc1
[3]
  fold change (FC): 6
[4]
  half-life: 2.2 h
Rattus norvegicus [5]
  AUC: 10000 ng·h/mL
[6]
  concentration at 5 h: 10 nM
Rattus norvegicus [7]
  ED50: 0.5 mg/kg
Rattus norvegicus [8]
  Activity: 57%
[9]
  Cmax: 1100 nM
[10]
  solubility at 72 h: 2 µg/mL (≈ 4.38 µM)
[11]
  Vd: 1.6 L/kg
Rattus norvegicus [12]
  F: 43%
[13]
  Ki: 4 nM
Rattus norvegicus [14]
  Activity: inactive
[15]
  concentration at 5 h: 428 nM
[16]
  concentration at 5 h: 58 nM
[17]
  Tmax: 2 h
[18]
  solubility at 72 h: ≤ 1 µg/mL
Rattus norvegicus [19]
  Activity: Active
Rattus norvegicus [20]
  CL: 10 mL/min/kg
[21]
  IC50: 19 nM
Rattus norvegicus [22]
  Activity: inactive
Rattus norvegicus [23]
  Activity: Active
[24]
  concentration at 5 h: 3050 nM
Rattus norvegicus [25]
  Activity: Active
Rattus norvegicus [26]
  Activity: Active
[27]
  IC50: 6 nM

## FC(F)(F)c1ccc(Nc2ncnc3sc(Nc4ccccc4)nc23)cc1
[1]
  IC50: > 5000 nM

## O=S(=O)(c1ccc(Nc2ncnc3sc(Nc4c(Cl)cccc4Cl)nc23)cc1)N1CCCC1
[2]
  IC50: 0.5 nM

## Cc1nc(Nc2ccc(C(F)(F)F)cc2)c2nc(Nc3c(Cl)cccc3Cl)sc2n1
[2]
  IC50: 2 nM

## FC(F)(F)c1ccc(Nc2nc(N3CCOCC3)nc3sc(Nc4c(Cl)cccc4Cl)nc23)cc1
[1]
  IC50: 30 nM
[2]
  IC50: 16 nM

## FC(F)(F)c1ccc(Nc2ncnc3sc(Nc4ccccc4Cl)nc23)cc1
[1]
  IC50: 64 nM
[2]
  IC50: 32 nM

## FC(F)(F)c1ccc(Nc2ncnc3nc(Nc4c(Cl)cccc4Cl)sc23)cc1
[1]
  IC50: 680 nM
[2]
  IC50: 864 nM

## FC(F)(F)c1cccc(Nc2ncnc3sc(Nc4c(Cl)cccc4Cl)nc23)c1
[1]
  IC50: 206 nM
[2]
  IC50: 192 nM

## NCc1cc(Cl)c(Nc2nc3c(Nc4ccc(C(F)(F)F)cc4)ncnc3s2)c(Cl)c1
[1]
  IC50: 125 nM
[2]
  IC50: 54 nM

## CS(=O)(=O)c1ccccc1Nc1nc2c(Nc3ccc(C(F)(F)F)cc3)ncnc2s1
[1]
  IC50: 234 nM
[2]
  IC50: 221 nM

## O=C(c1ccc(Nc2ncnc3sc(Nc4c(Cl)cccc4Cl)nc23)cc1)N1CCCC1
[1]
  IC50: > 5000 nM
[2]
  IC50: > 5000 nM

## FC(F)(F)c1ccccc1Nc1ncnc2sc(Nc3c(Cl)cccc3Cl)nc12
[1]
  IC50: > 5000 nM
[2]
  IC50: > 5000 nM

## FC(F)(F)c1ccc(Nc2nc(NCCN3CCOCC3)nc3sc(Nc4c(Cl)cccc4Cl)nc23)cc1
[28]
  clearance: 30 mL/min/kg
[29]
  Cmax: 70 nM
[30]
  half-life: 1.8 h
[31]
  bioavailability: 17%
[10]
  solubility at 72 h: 10 µg/mL (≈ 17.1 µM)
[32]
  Vd: 2.8 L/kg
[1]
  IC50: 39 nM
[18]
  solubility at 72 h: 116 µg/mL (≈ 198 µM)
Rattus norvegicus [33]
  AUC: 196 ng·h/mL
[34]
  Tmax: 2 h
[2]
  IC50: 11 nM

## FC(F)(F)c1ccc(Nc2nc(NCC3CC3)nc3sc(Nc4c(Cl)cccc4Cl)nc23)cc1
[1]
  IC50: 3 nM
[2]
  IC50: 3 nM

## FC(F)(F)c1ccc(Nc2nc3c(Nc4ccc(C(F)(F)F)cc4)ncnc3s2)cc1
[1]
  IC50: > 5000 nM

## FC(F)(F)c1ccc(Nc2nc(N3CCCC3)nc3sc(Nc4c(Cl)cccc4Cl)nc23)cc1
[1]
  IC50: 12 nM
[2]
  IC50: 36 nM

## CCN(CC)c1nc(Nc2ccc(C(F)(F)F)cc2)c2nc(Nc3c(Cl)cccc3Cl)sc2n1
[1]
  IC50: 48 nM
[2]
  IC50: 34 nM
